Data as given in EP4410284A1, “COMPOUND AND METHOD FOR THE TREATMENT OF ZELLWEGER SPECTRUM DISORDER” (Apteeus, priority 2023, dated 2024).
Structures can show the parent of a compound that is named as a salt.

Key:
Type in all cases: cell-based, human
GM16513 cells [1] = test: Catalase import immunofluorescence, high-content screening (% importing cells); conditions: GM16513 cells, 3 days; for EC50 / Emax: Homo sapiens, 72 h, dose response with 6 concentrations; for EC50: read-out: EC50; for Emax: read-out: Max Efficacy (% Importing cells)
Procedure: Images analysis was done using Columbus analysis software (PerkinElmer). DAPI channel was used to find nuclei (Hoechst 33342) and cytoplasm (HCS CellMask Blue) and border objects were removed. Cy5 channel (AlexaFluor 647) was used to find spots corresponding to peroxisomes which correctly import catalase. […] The number of importing or non-importing cells was calculated. Finally, results were expressed as % of importing cells.
(§4) The cytotoxicity was assessed in parallel using a double nucleus staining with Hoechst 33342 and Propidium Iodide (PI).
The EC50 and maximum efficacy of these inhibitors were determined.

GM11335 = test: Catalase import immunofluorescence (% importing cells); conditions: GM11335 (PEX26); for Importing cells (%): at the lower dose leading to the maximum effect (see E20)
Procedure: (§1) Primary fibroblasts were seeded at 500-700 cells per well in 384-well plates and grown at 37°C overnight. Cells were treated with test compounds or 0.1% DMSO for 3 days. After 3 days and a wash with PBS, cells were fixed with 4% paraformaldehyde (Electron Microscopy Sciences) in PBS for 20 minutes. After 3 washes with PBS, the cells were permeabilized and blocked with 0.3% Triton X-100, 1% BSA in PBS for 30 minutes at room temperature followed by 3 washes with 1% BSA in PBS. The cells were incubated with a rabbit Catalase polyclonal antibody (#12980 Cell signaling) overnight at 4°C. Following 3 washes with PBS containing 0.1% Tween-20, the cells were incubated for 1 h at room temperature with a conjugated goat anti-rabbit secondary antibody Alexa Fluor 647 (Ab150083-Abcam). The cells were then washed 3 times with PBS and Hoechst 33342 (H3570-ThermoFisher Scientific) + HCS Cellmask Blue (H32720 - ThermoFisher Scientific) staining was performed at 0.1 µg/ml and 0.4 µg/mL respectively for 30 minutes at room temperature. The cells were finally washed 3 times with PBS and fluorescent images were acquired using the INCell Analyzer 6000 imaging platform (GE Healthcare Life Sciences).
(§2) Images analysis was done using Columbus analysis software (PerkinElmer). DAPI channel was used to find nuclei (Hoechst 33342) and cytoplasm (HCS CellMask Blue) and border objects were removed. Cy5 channel (AlexaFluor 647) was used to find spots corresponding to peroxisomes which correctly import catalase. Cells were classified as importing or non-importing cells using a linear classifier method after training with images of wells containing Healthy cells and PEX1 deficient cells. The number of importing or non-importing cells was calculated. Finally, results were expressed as % of importing cells.
(§3) Among the HDAC inhibitors of example 2, 4 were tested on other cells which are PEX1, PEX6 or PEX26 deficient.

PEX607 = test: as above; conditions: PEX607 (PEX6); for Importing cells (%): at the lower dose leading to the maximum effect (see E18)
Procedure: as §1, §2, §3

GM 16865 = test: as above; conditions: GM 16865 (PEX26); for Importing cells (%): at the lower dose leading to the maximum effect (see E22)
Procedure: as §1, §2, §3

PEX506 = test: as above; conditions: PEX506 (PEX6); for Importing cells (%): at the lower dose leading to the maximum effect (see E16)
Procedure: as §1, §2, §3

PEX304 = test: as above; conditions: PEX304 (PEX1); for Importing cells (%): at the lower dose leading to the maximum effect (see E14)
Procedure: as §1, §2, §3

GM 17398 = test: as above; conditions: GM 17398 (PEX26 deficient); for Importing cells (%): at the lower dose leading to the maximum effect (see E24)
Procedure: as §1, §2, §3

PEX405 cells = test: Catalase import immunofluorescence, high-content screening (% importing cells); conditions: for Concentration (lower dose leading to the maximum effect) / Importing cells (%): PEX405 (PEX1); for Importing cells (%): at the lower dose leading to the maximum effect (see E12); for % Importing cells: PEX405 cells, 3 days
Procedure: as §4

GM16513 cells [2] = test: Beta-oxidation of d4-C24:0 (LC-MS/MS)
Procedure: Degradation (to d4-C16:0) and elongation (to d4-C26:0 and d4-C28:0) of d4-VLCFA (very long chain fatty acid) in the cells was measured using d4-C24:0 as substrate (D-6145-CDN isotopes). D4-C24:0 was solubilized in culture medium using α-cyclodetrin, with a molar ratio of d4-C24:0:α-cyclodextrin 1:50. Cyclodextrins, which are cyclic oligosaccharides, are commonly used to solubilize fatty acids by complexation, for supplementation of cell culture media, and serve as vehicle to deliver fatty acids to the cells. Cyclodextrins have a polar surface and a hydrophobic cylindrical cavity that can bind and solubilize a wide variety of hydrophobic molecules, such as fatty acids, while remaining soluble in water. The assay was performed in T75 culture flasks for 3 or 10 days. The medium was replaced by fresh medium every 2-3 days and supplemented with d4-C24:0 for the last 3 days. After 3 or 10 days, cells were harvested and lysated in water (100-200 µL) by freeze/thaw cycle and sonication for 5 min. Total proteins were quantified using BCA assay and 100 µg of total proteins were used for each sample.
After cell lysis, the samples were dried using a rotating evaporator (Genevac EZ-2, SP Scientific), set at 40°C for 2h under vacuum. After evaporation, a hydrolysis mix consisting of 90% acetonitrile and 10% NaOH 1N in water was added to the samples. The samples were incubated for 1h at room temperature under stirring (300 rpm). After hydrolysis, the samples were evaporated using a Genevac device, under vacuum, at 40°C for 2h.
Derivation of free fatty acids was done using a 2.5 mg/mL Na2CO3 solution in DMF and a 2.5 mg/mL TMAE (trimethylammoniumethyl) reagent solution in DMF. The solutions were mixed in a 1:1 ratio, and 200 µL of the mix was added to dry samples to be derived. For the derivation, the samples were incubated for 3h at 50°C. DMF was then evaporated using a Genevac™ device, under vacuum, at 60°C for 4h.
Before injection, the samples were solubilized in a 90/10 acetonitrile/isopropanol mixture with 1% HCl. After solubilization, the samples were stirred and centrifuged at 4000 rpm for 20 min at 10°C.
For the separation of the derived fatty acids by liquid chromatography, a Waters Acquity ultra-performance liquid chromatography (UPLC) system (Acquity I-Class, Waters) was used. […]
After separation by liquid chromatography, the analytes were subjected to MS analysis using a Waters Xevo TQSmicro system (Waters). […] The molecules were analyzed using MRM (multiple reaction monitoring) mode, with the main daughter ion for each derived fatty acid corresponding to the loss of a trimethylammonium moiety (m/z 59). Derived FAs with a chain length from 16 to 28, with no or one unsaturation, were analyzed. […] The acquired data were analyzed by the Waters MassLynx software.

[3] = 0.5 µM for 3 or 10 days, compared to non-treated cells

| Compound | % Importing cells (GM16513 cells [1]; 1.3 µM) [%] | % Importing cells (GM16513 cells [1]; 10 µM) [%] | EC50 (GM16513 cells [1]) [nM] | Emax (GM16513 cells [1]) [%] | Concentration (lower dose leading to the maximum effect) (GM11335) [µM] | Importing cells (%) (GM11335) | Concentration (lower dose leading to the maximum effect) (PEX607) [µM] | Importing cells (%) (PEX607) | Concentration (lower dose leading to the maximum effect) (GM 16865) [µM] | Importing cells (%) (GM 16865) | Concentration (lower dose leading to the maximum effect) (PEX506) [µM] | Importing cells (%) (PEX506) | Concentration (lower dose leading to the maximum effect) (PEX304) [µM] | Importing cells (%) (PEX304) | Concentration (lower dose leading to the maximum effect) (GM 17398) [µM] | Importing cells (%) (GM 17398) | Concentration (lower dose leading to the maximum effect) (PEX405 cells) [µM] | Importing cells (%) (PEX405 cells) | % Importing cells (PEX405 cells; 1.3 µM) [%] | % Importing cells (PEX405 cells; 10 µM) [%] | further results |
| --- | --- | --- | --- | --- | --- | --- | --- | --- | --- | --- | --- | --- | --- | --- | --- | --- | --- | --- | --- | --- | --- |
| O=C(/C=C/c1cccc(S(=O)(=O)Nc2ccccc2)c1)NO [Belinostat] | 95 | 97 | 200 | 98 | 0.85 | 30 | 0.85 | 43 | 0.85 | 35 | 0.25 | 64 | 2.5 | 11 | 2.5 | 0 | 2.5 | 41 | 52 | 27 | relative d4-VLCFA levels (C26, C28) (GM16513 cells [2]; [3]): decrease; shortest d4-FA (C16, C18) levels (GM16513 cells [2]; [3]): increase |
| CCN(CC)Cc1ccc2cc(COC(=O)Nc3ccc(C(=O)NO)cc3)ccc2c1 [Givinostat (hydrochloride monohydrate), Givinostat] | 81 | 32 | 170 | 80 | 0.087 | 20 | 0.25 | 42 | 0.25 | 20 | 0.087 | 69 | 0.85 | 5 | 2.5 | 0 | 0.25 | 13 | 12 | 6 | d4-C16,C18,C20 and C22 levels (GM16513 cells [2]; 3 days of treatment, dose response manner): increase |
